Like-named read-outs stand apart in the source and are kept apart here.
Key:
[1] = system: α1 (non-selective) (r); assay: Off-target screen, radioligand displacement at 10 μM; type: binding, rat
[2] = target: 5-HT3 (h) (Homo sapiens (Human), UniProt P46098); assay: as above; conditions: antagonist, read-out: binding at 10 μM
[3] = target: PAC1 (Pituitary adenylate cyclase-activating polypeptide, PACAP) (h) (Homo sapiens (Human), UniProt P41586); assay: as above; conditions: read-out: binding at 10 μM
[4] = target: D5 (h) (Homo sapiens (Human), UniProt P21918); assay: as above; conditions: read-out: binding at 10 μM
Sequence of D5 (h) (P21918 whole entry, looked up): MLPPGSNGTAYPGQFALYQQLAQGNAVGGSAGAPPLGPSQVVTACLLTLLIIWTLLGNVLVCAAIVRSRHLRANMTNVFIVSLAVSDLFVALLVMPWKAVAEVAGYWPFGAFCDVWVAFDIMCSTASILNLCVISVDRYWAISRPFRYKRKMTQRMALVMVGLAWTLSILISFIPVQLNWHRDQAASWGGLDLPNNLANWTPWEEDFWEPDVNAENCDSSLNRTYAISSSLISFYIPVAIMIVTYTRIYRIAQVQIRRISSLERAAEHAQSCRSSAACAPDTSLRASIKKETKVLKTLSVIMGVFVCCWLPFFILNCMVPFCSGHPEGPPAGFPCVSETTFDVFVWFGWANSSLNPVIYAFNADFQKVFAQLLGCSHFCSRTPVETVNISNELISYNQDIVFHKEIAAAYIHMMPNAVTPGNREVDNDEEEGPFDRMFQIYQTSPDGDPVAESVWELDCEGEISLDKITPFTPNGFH

[5] = target: Endothelin ETA (h) (Homo sapiens (Human), UniProt P25101); assay: as above; conditions: read-out: binding at 10 μM
[6] = target: Vasopressin V1a (h) (Homo sapiens (Human), UniProt P37288); assay: as above; conditions: read-out: binding at 10 μM
Sequence of Vasopressin V1a (h) (P37288 whole entry, looked up): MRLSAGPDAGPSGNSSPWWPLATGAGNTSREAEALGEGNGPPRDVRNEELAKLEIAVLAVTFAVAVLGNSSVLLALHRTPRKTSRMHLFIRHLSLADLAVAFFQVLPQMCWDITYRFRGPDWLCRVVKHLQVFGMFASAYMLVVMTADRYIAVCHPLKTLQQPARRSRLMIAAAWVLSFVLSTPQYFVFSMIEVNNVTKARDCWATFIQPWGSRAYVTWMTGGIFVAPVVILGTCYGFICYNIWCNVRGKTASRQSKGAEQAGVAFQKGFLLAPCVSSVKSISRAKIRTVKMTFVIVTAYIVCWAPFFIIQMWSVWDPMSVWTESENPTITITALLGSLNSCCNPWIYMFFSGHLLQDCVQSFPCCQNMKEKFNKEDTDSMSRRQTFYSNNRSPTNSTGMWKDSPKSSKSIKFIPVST

[7] = target: B2 (h) (Homo sapiens (Human), UniProt P30411); assay: as above; conditions: read-out: binding at 10 μM
[8] = target: 5-HT transporter (h) (Homo sapiens (Human), UniProt P31645); assay: as above; type: binding
[9] = system: P2Y (ATP) (rat cortex); assay: as above; type: binding
[10] = target: Muscarinic M1 (h) (Homo sapiens (Human), UniProt P11229); assay: as above; type: binding; conditions: antagonist radioligand
[11] = target: Tachykinin NK3 (h) (Homo sapiens (Human), UniProt P29371); assay: as above; conditions: read-out: binding at 10 μM
[12] = target: norepinephrine transporter (h) (Homo sapiens (Human), UniProt P23975); assay: as above; conditions: read-out: binding at 10 μM
[13] = system: GABA (non-selective) (rat cortex); assay: as above; type: binding
[14] = target: Adrenergic β2 (h) (Homo sapiens (Human), UniProt P07550); assay: as above; type: binding; conditions: antagonist radioligand
Sequence of Adrenergic β2 (h) (P07550 whole entry, looked up): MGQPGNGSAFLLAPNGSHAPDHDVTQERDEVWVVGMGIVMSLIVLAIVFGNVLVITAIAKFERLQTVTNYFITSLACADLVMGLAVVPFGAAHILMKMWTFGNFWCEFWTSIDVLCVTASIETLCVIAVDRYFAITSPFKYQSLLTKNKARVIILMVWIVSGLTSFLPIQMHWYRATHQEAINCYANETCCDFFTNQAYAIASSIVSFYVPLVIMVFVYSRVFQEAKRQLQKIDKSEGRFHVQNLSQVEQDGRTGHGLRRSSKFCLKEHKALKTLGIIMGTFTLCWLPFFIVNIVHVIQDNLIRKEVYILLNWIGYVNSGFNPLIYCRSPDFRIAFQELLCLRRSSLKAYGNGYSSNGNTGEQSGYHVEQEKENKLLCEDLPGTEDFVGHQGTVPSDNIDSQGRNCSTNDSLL

[15] = target: 5-HT2C receptor (Homo sapiens (Human), UniProt P28335); assay: 5-HT2C functional assay, IP1 (IPOne); type: cell-based; conditions: for Emax: IP1 assay, relative to 5-HT
Sequence of 5-HT2C receptor (P28335 whole entry, looked up): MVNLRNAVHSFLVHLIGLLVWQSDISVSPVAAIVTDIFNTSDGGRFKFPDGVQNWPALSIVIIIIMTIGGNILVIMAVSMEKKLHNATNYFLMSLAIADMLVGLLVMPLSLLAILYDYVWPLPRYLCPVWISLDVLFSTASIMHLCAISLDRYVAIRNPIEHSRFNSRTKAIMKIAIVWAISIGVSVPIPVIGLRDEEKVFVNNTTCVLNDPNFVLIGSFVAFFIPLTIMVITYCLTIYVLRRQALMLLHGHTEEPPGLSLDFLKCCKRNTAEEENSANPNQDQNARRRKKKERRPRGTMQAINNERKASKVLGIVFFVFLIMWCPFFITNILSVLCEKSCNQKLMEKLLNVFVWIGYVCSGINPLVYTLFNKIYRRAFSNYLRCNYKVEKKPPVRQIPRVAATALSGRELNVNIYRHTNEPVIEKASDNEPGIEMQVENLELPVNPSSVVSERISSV
Description: (§1) 5-HT2A,2B,2C receptor-mediated Gq activation—canonical signaling pathways—[phosphoinositide hydrolysis leading to the production of inositol phosphate 1 (IP1, IPOne, Cisbio assay) or direct G-protein activation using TRUPATH technology]were measured as previously described (Porter, R. H. P., Benwell, K. R., Lamb, H., Malcolm, C. S., Allen, N. F., Revell, D. F., Adams, D. R. and Sheardown, M. J., 1999, Functional characterization of agonists at recombinant human 5-HT2a, 5HT2b and 5-HT2c receptors in CHO-K1 cells, Brit J Pharmacol 128, 13; Olsen, R. H. J., DiBerto, J. F., English, J. G. et al. TRUPATH, an open-source biosensor platform for interrogating the GPCR transducerome. […] Briefly, for the IPOne assay, for 5-HT2ARs, CHO-K1 or HEK-293 cells were incubated with test articles and 5-HT (positive control) in stimulation buffer containing LiCl. After incubation, cells were lysed and fluorescence acceptor and donor were added. FRET was measured after 60 min at room temperature using a microplate reader (Envision, Perkin Elmer). TRUPATH assays followed a similar workflow, except that different reagents were used, and LiCl was not included in the samples; the protocol was based on the report by Olsen, R. H. J. et al., cited above.

[16] = target: Adenosine A1 (h) (Homo sapiens (Human), UniProt P30542); assay: Off-target screen, radioligand displacement at 10 μM; conditions: read-out: binding at 10 μM
Sequence of Adenosine A1 (h) (P30542 whole entry, looked up): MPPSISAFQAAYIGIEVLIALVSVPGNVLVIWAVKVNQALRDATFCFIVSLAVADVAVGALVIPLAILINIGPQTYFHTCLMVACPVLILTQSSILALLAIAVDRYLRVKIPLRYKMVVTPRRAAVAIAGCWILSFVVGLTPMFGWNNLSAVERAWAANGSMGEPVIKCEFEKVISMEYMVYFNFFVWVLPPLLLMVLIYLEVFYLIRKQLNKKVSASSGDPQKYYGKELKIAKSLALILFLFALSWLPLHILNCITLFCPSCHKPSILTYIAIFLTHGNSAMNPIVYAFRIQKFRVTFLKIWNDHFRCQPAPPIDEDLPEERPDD

[17] = target: Neurotensin NT1 (h) (Homo sapiens (Human), UniProt P30989); assay: as above; conditions: read-out: binding at 10 μM
Sequence of Neurotensin NT1 (h) (P30989 whole entry, looked up): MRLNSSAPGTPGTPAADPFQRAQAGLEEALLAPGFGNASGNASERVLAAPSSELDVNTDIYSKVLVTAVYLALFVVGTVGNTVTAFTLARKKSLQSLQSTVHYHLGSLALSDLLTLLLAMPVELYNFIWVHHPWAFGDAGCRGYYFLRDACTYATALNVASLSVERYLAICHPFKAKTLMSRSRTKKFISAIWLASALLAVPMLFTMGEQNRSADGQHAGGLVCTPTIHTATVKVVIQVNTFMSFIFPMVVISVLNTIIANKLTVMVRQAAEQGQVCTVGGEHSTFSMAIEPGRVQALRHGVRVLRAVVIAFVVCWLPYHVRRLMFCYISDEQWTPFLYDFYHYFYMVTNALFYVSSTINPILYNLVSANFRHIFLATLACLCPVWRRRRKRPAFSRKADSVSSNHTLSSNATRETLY

[18] = target: Adenosine A2A (h) (Homo sapiens (Human), UniProt P29274); assay: as above; type: binding
[19] = system: Somatostatin SST (non-selective) (m); assay: as above; type: binding, mouse
[20] = target: Muscarinic M2 (h) (Homo sapiens (Human), UniProt P08172); assay: as above; conditions: read-out: binding at 10 μM
[21] = target: Dopamine D3 (h) (Homo sapiens (Human), UniProt P35462); assay: as above; type: binding
Sequence of Dopamine D3 (h) (P35462 whole entry, looked up): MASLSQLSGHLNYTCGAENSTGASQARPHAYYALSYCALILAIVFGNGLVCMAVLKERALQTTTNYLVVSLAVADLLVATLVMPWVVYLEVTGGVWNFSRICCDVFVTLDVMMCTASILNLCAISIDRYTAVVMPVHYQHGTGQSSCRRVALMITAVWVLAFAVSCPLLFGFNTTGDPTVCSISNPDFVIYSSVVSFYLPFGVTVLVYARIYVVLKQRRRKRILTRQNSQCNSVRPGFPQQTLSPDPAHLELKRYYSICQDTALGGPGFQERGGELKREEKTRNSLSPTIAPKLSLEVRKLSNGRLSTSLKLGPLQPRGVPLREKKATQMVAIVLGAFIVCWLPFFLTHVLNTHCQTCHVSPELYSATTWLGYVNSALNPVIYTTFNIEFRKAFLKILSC

[22] = target: Prostacyclin IP (PGI2) (h) (Homo sapiens (Human), UniProt P43119); assay: as above; conditions: read-out: binding at 10 μM
[23] = system: BB (nonselective) (rat cortex); assay: as above; type: binding
[24] = target: Tachykinin NK2 (h) (Homo sapiens (Human), UniProt P21452); assay: as above; conditions: read-out: binding at 10 μM
Sequence of Tachykinin NK2 (h) (P21452 whole entry, looked up): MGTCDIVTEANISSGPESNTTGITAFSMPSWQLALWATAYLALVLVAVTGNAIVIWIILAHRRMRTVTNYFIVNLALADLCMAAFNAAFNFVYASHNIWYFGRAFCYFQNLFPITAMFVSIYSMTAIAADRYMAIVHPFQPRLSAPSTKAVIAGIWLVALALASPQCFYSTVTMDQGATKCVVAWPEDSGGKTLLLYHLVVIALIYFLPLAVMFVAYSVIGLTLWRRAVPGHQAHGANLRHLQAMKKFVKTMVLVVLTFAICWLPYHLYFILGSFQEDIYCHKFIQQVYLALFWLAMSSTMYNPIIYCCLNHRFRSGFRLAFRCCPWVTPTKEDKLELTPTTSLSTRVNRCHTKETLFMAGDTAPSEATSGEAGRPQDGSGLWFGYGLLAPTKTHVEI

[25] = target: Angiotensin AT2 (h) (Homo sapiens (Human), UniProt P50052); assay: as above; conditions: read-out: binding at 10 μM
[26] = system: BZD (central) (rat cortex); assay: as above; type: binding
[27] = target: human 5-HT2B receptor (Homo sapiens (Human), UniProt P41595); assay: 5-HT2B functional assay, IP1 (IPOne); type: cell-based; conditions: for Emax: IP1 assay, relative to 5-HT
Sequence of human 5-HT2B receptor (P41595 whole entry, looked up): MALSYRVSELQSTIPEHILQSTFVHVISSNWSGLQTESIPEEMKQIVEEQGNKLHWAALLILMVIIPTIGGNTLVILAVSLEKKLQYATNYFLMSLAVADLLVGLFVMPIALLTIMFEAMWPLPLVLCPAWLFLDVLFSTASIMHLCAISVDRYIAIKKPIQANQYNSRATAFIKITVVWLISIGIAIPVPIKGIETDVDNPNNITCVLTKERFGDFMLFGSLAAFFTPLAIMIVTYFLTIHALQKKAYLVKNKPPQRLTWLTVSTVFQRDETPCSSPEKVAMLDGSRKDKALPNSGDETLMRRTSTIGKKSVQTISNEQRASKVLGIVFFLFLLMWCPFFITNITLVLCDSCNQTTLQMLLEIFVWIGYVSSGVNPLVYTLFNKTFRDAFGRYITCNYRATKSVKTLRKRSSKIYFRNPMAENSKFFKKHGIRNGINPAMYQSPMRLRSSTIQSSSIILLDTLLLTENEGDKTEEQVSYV
Description: as §1

[28] = target: D4.4 (h) (Homo sapiens (Human), UniProt P21917); assay: Off-target screen, radioligand displacement at 10 μM; conditions: read-out: binding at 10 μM
[29] = target: Adenosine A3 (h) (Homo sapiens (Human), UniProt P0DMS8); assay: as above; conditions: read-out: binding at 10 μM
Sequence of Adenosine A3 (h) (P0DMS8 whole entry, looked up): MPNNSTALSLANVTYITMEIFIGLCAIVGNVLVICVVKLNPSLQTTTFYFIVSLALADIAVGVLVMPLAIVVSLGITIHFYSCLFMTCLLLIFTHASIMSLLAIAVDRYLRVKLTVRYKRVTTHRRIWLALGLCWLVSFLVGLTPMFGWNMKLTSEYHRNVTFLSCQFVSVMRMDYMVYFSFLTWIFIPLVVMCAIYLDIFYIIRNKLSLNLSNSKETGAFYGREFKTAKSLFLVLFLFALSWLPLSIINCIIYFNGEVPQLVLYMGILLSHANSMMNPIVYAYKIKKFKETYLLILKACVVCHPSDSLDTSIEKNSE

[30] = system: PCP (rat cortex); assay: as above; type: binding
[31] = system: Potassium KV channel (rat cortex); assay: as above; type: binding
[32] = system: Na+ channel (site 2) (rat cortex); assay: as above; type: binding; conditions: antagonist radioligand
[33] = antagonist radioligand, read-out: inhibition at 10 μM

Sequence of 5-HT3 (h) (P46098 whole entry, looked up): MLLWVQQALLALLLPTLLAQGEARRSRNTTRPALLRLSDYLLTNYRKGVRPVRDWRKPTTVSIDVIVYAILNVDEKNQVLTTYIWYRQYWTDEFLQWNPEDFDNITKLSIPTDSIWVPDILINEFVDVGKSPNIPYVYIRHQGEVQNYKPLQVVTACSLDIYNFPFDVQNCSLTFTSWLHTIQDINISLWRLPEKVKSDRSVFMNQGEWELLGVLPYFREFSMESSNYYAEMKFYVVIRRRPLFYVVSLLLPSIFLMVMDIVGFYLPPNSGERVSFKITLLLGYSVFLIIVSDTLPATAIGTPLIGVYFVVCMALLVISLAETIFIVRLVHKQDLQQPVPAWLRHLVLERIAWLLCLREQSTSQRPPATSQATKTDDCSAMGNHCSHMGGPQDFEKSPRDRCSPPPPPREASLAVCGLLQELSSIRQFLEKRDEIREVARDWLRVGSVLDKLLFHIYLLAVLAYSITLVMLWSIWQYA

COc1cc(SC(F)(F)F)c(OC)cc1CCN [Compound I-1, 2-(2,5-dimethoxy-4-((trifluoromethyl)thio)phenyl)ethan-1-amine] was tested. Which “binding at 10 μM” value [1] did it give?
The value was “NB (inhibited less than 50% of radioligand bound to them, and therefore it can be concluded they do not bind (“no binding,” NB))”.

And the inhibition at 10 µM [2]?
The inhibition at 10 µM was under 50%.

And the inhibition at 10 µM [3]?
The inhibition at 10 µM was under 50%.

What about the inhibition at 10 µM [4] of the same molecule?
The inhibition at 10 µM was under 50%.

What about the inhibition at 10 µM [5] of the same molecule?
Its inhibition at 10 µM is under 50%.

What about the inhibition at 10 µM [6] of the same molecule?
The inhibition at 10 µM was under 50%.

And the inhibition at 10 µM [7]?
Its inhibition at 10 µM is under 50%.

What about the inhibition at 10 µM ([8]; read-out: binding at 10 μM) of the same molecule?
Its inhibition at 10 µM is under 50%.

What about the “binding at 10 μM” value [9] of the same molecule?
The value was “NB (inhibited less than 50% of radioligand bound to them, and therefore it can be concluded they do not bind (“no binding,” NB))”.

What about the inhibition at 10 µM [10] of the same molecule?
The inhibition at 10 µM was over 80%.

And the inhibition at 10 µM [11]?
Its inhibition at 10 µM is under 50%.

And the inhibition at 10 µM [12]?
Its inhibition at 10 µM is under 50%.

What about the “binding at 10 μM” value [13] of the same molecule?
Its value is “NB (inhibited less than 50% of radioligand bound to them, and therefore it can be concluded they do not bind (“no binding,” NB))”.

And the inhibition at 10 µM [14]?
Its inhibition at 10 µM is 52.2%.

And the EC50 [15]?
The EC50 was 7.3 nM.

And the “activation selectivity for 5-HT2C over 5-HT2B” value ([15]; EC50, IP1)?
The value was about 12 fold.

And the Emax [15]?
The Emax was about 99%.

And the inhibition at 10 µM [16]?
Its inhibition at 10 µM is under 50%.

And the inhibition at 10 µM [17]?
The inhibition at 10 µM was under 50%.

What about the “binding at 10 μM” value [18] of the same molecule?
Its value is “NB (inhibited less than 50% of radioligand bound to them, and therefore it can be concluded they do not bind (“no binding,” NB))”.

And the “binding at 10 μM” value [19]?
The value was “NB (inhibited less than 50% of radioligand bound to them, and therefore it can be concluded they do not bind (“no binding,” NB))”.

And the inhibition at 10 µM [20]?
Its inhibition at 10 µM is under 50%.

What about the inhibition at 10 µM [21, 33] of the same molecule?
The inhibition at 10 µM was 70.4%.

And the inhibition at 10 µM [22]?
Its inhibition at 10 µM is under 50%.

What about the “binding at 10 μM” value [23] of the same molecule?
Its value is “NB (inhibited less than 50% of radioligand bound to them, and therefore it can be concluded they do not bind (“no binding,” NB))”.

What about the inhibition at 10 µM [24] of the same molecule?
The inhibition at 10 µM was under 50%.

And the inhibition at 10 µM [25]?
Its inhibition at 10 µM is under 50%.

What about the “binding at 10 μM” value [26] of the same molecule?
Its value is “NB (inhibited less than 50% of radioligand bound to them, and therefore it can be concluded they do not bind (“no binding,” NB))”.

What about the EC50 [27] of the same molecule?
The EC50 was 88 nM.

What about the Emax [27] of the same molecule?
The Emax was about 84%.

What about the inhibition at 10 µM [28] of the same molecule?
Its inhibition at 10 µM is under 50%.

And the inhibition at 10 µM [29]?
Its inhibition at 10 µM is under 50%.

What about the “binding at 10 μM” value [30] of the same molecule?
The value was “NB (inhibited less than 50% of radioligand bound to them, and therefore it can be concluded they do not bind (“no binding,” NB))”.

What about the “binding at 10 μM” value [31] of the same molecule?
The value was “NB (inhibited less than 50% of radioligand bound to them, and therefore it can be concluded they do not bind (“no binding,” NB))”.

What about the “inhibition at 10 µM” value [32] of the same molecule?
The value was 68.4% inhibition at 10 μM.

COc1cc(CC(C)N)c(OC)cc1I (racemic) [DOI, (±)-2,5-dimethoxy-4-iodoamphetamine, reference compound] was tested. Which “binding at 10 μM” value [1] did it give?
The value was “NB (inhibited less than 50% of radioligand bound to them, and therefore it can be concluded they do not bind (“no binding,” NB))”.

What about the inhibition at 10 µM [2] of the same molecule?
Its inhibition at 10 µM is under 50%.

What about the inhibition at 10 µM [3] of the same molecule?
The inhibition at 10 µM was under 50%.

And the inhibition at 10 µM [4]?
Its inhibition at 10 µM is under 50%.

What about the inhibition at 10 µM [5] of the same molecule?
The inhibition at 10 µM was under 50%.

And the inhibition at 10 µM [6]?
The inhibition at 10 µM was under 50%.

What about the inhibition at 10 µM [7] of the same molecule?
The inhibition at 10 µM was under 50%.

And the inhibition at 10 µM [8, 33]?
Its inhibition at 10 µM is 76.2%.

What about the “binding at 10 μM” value [9] of the same molecule?
Its value is “NB (inhibited less than 50% of radioligand bound to them, and therefore it can be concluded they do not bind (“no binding,” NB))”.

And the inhibition at 10 µM [10]?
The inhibition at 10 µM was 71.8%.

And the inhibition at 10 µM [11]?
Its inhibition at 10 µM is under 50%.

And the inhibition at 10 µM [12]?
Its inhibition at 10 µM is under 50%.

And the “binding at 10 μM” value [13]?
The value was “NB (inhibited less than 50% of radioligand bound to them, and therefore it can be concluded they do not bind (“no binding,” NB))”.

What about the inhibition at 10 µM [14] of the same molecule?
Its inhibition at 10 µM is at least 80%.

And the EC50 [15]?
The EC50 was 8 nM.

And the Emax [15]?
Its Emax is about 108%.

What about the inhibition at 10 µM [16] of the same molecule?
The inhibition at 10 µM was under 50%.

And the inhibition at 10 µM [17]?
The inhibition at 10 µM was under 50%.

And the “binding at 10 μM” value [18]?
Its value is “NB (inhibited less than 50% of radioligand bound to them, and therefore it can be concluded they do not bind (“no binding,” NB))”.

What about the “binding at 10 μM” value [19] of the same molecule?
Its value is “NB (inhibited less than 50% of radioligand bound to them, and therefore it can be concluded they do not bind (“no binding,” NB))”.

What about the inhibition at 10 µM [20] of the same molecule?
Its inhibition at 10 µM is under 50%.

And the inhibition at 10 µM ([21]; read-out: binding at 10 μM)?
Its inhibition at 10 µM is under 50%.

And the inhibition at 10 µM [22]?
The inhibition at 10 µM was under 50%.

What about the “binding at 10 μM” value [23] of the same molecule?
The value was “NB (inhibited less than 50% of radioligand bound to them, and therefore it can be concluded they do not bind (“no binding,” NB))”.

What about the inhibition at 10 µM [24] of the same molecule?
Its inhibition at 10 µM is under 50%.

What about the inhibition at 10 µM [25] of the same molecule?
Its inhibition at 10 µM is under 50%.

What about the “binding at 10 μM” value [26] of the same molecule?
The value was “NB (inhibited less than 50% of radioligand bound to them, and therefore it can be concluded they do not bind (“no binding,” NB))”.

And the EC50 [27]?
Its EC50 is 16 nM.

What about the Emax [27] of the same molecule?
The Emax was about 98%.

And the inhibition at 10 µM [28]?
Its inhibition at 10 µM is under 50%.

And the inhibition at 10 µM [29]?
Its inhibition at 10 µM is under 50%.

And the “binding at 10 μM” value [30]?
The value was “NB (inhibited less than 50% of radioligand bound to them, and therefore it can be concluded they do not bind (“no binding,” NB))”.

What about the “binding at 10 μM” value [31] of the same molecule?
The value was “NB (inhibited less than 50% of radioligand bound to them, and therefore it can be concluded they do not bind (“no binding,” NB))”.

And the “inhibition at 10 µM” value [32]?
The value was 53.5% inhibition at 10 μM.
